One experiment has as its target HDAC1 (Homo sapiens, UniProt Q13547). In kind it is biochemical.
Experiment [1] has as its system transformed and non-transformed human- and murine-derived cell lines. The conditions noted are these: transformed vs non-transformed human- and murine-derived cell lines; cited from earlier work.

A word on the Ki: it is a dissociation constant, usually derived from enzyme kinetics or from competition with a known ligand. Read a low Ki as higher affinity.

Sequence of HDAC1 (Q13547 whole entry): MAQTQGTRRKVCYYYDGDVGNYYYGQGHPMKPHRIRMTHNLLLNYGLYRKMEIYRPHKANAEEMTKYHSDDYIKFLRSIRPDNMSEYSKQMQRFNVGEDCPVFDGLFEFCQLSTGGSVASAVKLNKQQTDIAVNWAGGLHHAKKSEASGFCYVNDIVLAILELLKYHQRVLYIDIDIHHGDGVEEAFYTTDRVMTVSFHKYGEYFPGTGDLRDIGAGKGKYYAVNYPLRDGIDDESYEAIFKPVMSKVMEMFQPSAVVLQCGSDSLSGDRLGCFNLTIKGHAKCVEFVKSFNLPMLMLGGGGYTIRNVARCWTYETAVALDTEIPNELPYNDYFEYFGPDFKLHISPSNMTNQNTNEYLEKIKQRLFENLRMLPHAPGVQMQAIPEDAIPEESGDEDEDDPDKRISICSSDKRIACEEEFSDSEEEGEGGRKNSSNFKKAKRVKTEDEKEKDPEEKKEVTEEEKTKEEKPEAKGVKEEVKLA

For the compound `C/C=C1\NC(=O)[C@H]2CSSCC/C=C/[C@H](CC(=O)N[C@H](C(C)C)C(=O)N2)OC(=O)[C@H](C(C)C)NC1=O` [FK228], the Ki at HDAC1 was found to be 0.12 nM. This counts as sub-nanomolar.
On to `CCCCCCCC(=O)SCC/C=C/[C@@H]1CC(=O)NCc2nc(cs2)C2=N[C@@](C)(CS2)C(=O)N[C@@H](C(C)C)C(=O)O1` [largazole (1), largazole], for which the differential growth inhibition result in experiment [1] is given as “two- to ten-fold”.

The values are drawn from PMC3090445 (Journal of the American Chemical Society, 2008).
